Measurements reported in patent publication US6900202B2, “Di-substituted imineheterocyclic compounds” (priority 2000, dated 2005).

Assays:
[1] = target: T1, α4β2 subtype of nicotinic acetylcholine receptors (Rattus norvegicus, UniProt P09483+P12390); test: Binding assay at α4β2 subtype of nicotinic acetylcholine receptors ([3H]-cytisine, rat brain membrane); details: for control % of [3H]-cytisine binding at 1 μM of test compound: 1 μM test compound; for control % of [3H]-cytisine binding at 1 μM of test compound / control % of [3H]-cytisine binding at 10 μM of test compound: % of control binding remaining; for control % of [3H]-cytisine binding at 10 μM of test compound: 10 μM test compound
T1 construct: examined using rat brain membrane obtained from whole homogenized brain; from tissue; host or cells: whole brain membranes of Fischer-344 male rats
Description: (§1) The methods for evaluating the binding capabilities of the compounds against nicotinic acetylcholine receptors are different by subtypes of receptors. The binding capabilities of the compounds at α4β2 nicotinic acetylcholine receptors are examined using rat brain membrane obtained from whole homogenized brain, and determining the inhibiting rate of the compounds against [^3H]-cytisine binding to said brain membrane. Furthermore, the binding capabilities of the compounds at α1β1γδ nicotinic acetylcholine receptors are examined using homogenized rat muscle, and determining the inhibiting rate of the compounds against [^3H]-α-bungarotoxin binding to said muscle membrane.
Binding Assays at α4β2 Subtype of Nicotinic Acetylcholine Receptors
The affinity of the compounds of the present invention to α4β2 subunit of nicotinic acetylcholine receptors was performed by the following method, which was modified method described by Pabreza L. A., Dhawan S. & Kellar K. J., Mol. Pharm., 39, 9-12 (1990), and by Anderson D. J. & Arneric S. P., Eur. J. Pharm., 253, 261-267 (1994).
(1) Preparation of Rat Brain Membrane Containing α4β2 subtype of Nicotinic Acetylcholine Receptors
Fischer-344 strain male rats (body weight: 200-240 g; 9 weeks old) obtained from Charles River Japan were used. Rats were housed in the breeding cage controlled of the room temperature at 23±1° C., and the humidity of 55±5% for 1 to 4 weeks. Rats (3 to 4 rats per a cage) were housed with lights on for 12 hours daily (from 7:00 to 19:00), and allowed free access to food and water.
Preparation of rat brain membrane containing α4β2 subtype of nicotinic acetylcholine receptors was performed as follow. That is, rat brains were isolated just after sacrificed by decapitation, washed with ice-cooled saline solution and then frozen at −80° C. with liquid nitrogen and stored till using. After thawing the frozen brain, the brain was homogenized in 10 volumes of buffer solution (50 mM of Tris-HCl, 120 mM of NaCl, 5 mM of KCl, 1 mM of MgCl2, 2mM of CaCl2; pH 7.4; 4° C.) using homogenizer (HG30, Hitachi Kohki Ltd.) for 30 seconds, and the homogenate were centrifuged under 1,000×G for 10 minutes at 4° C. The resulting supernatant was separated and the pellet was homogenized again with half volume of aforementioned prior buffer solution and centrifuged under the same conditions. Combined supernatant was further centrifuged under 40,000×G for 20 minutes at 4° C. The pellet was suspended in buffer solution and used for binding assays at receptors.
(2) Experiments of α4β2 Subtype of Nicotinic Acetylcholine Receptors Binding
Suspensions of membrane pellets containing 400-600 μg of protein were added to test tubes containing test compounds and [^3H]-cytisine (2 nM) in a final volume of 200 μl and incubated for 75 minutes in ice-cooled bath. The samples were isolated by vacuum filtration onto Whatman GF/B filters, which were prerinsed with 0.5% polyethylenimine just prior to sample filtration, using Brandel multi manifold cell harvester. The filters were rapidly washed with buffer solution (3×1 ml). The filters were counted in 3 ml of clearsol I (Nacalai Tesque Inc.).
The analyses of the experimental results were conducted by using the Accufit Competition Program (Beckman Ltd.).

[2] = target: T2, α1β1γδ subtype of nicotinic acetylcholine receptors (Rattus norvegicus, UniProt P25108); test: biochemical; type: binding; details: % of control binding remaining; for control % of [3H]-α-Bgt binding at 100 μM of test compound: 100 μM test compound; for control % of [3H]-α-Bgt binding at 1,000 μM of test compound: 1,000 μM test compound
T2 construct: The centrifugation at 100,000×G for 60 minutes at 4° C. yielded the rat muscle extract as supernatant
Description: as §1
Binding Assays at α1β1γδ Subtype of Nicotinic Acetylcholine Receptors
The affinity of the compounds of the present invention to α1β1γδ subtype of nicotinic acetylcholine receptors was measured by the following method, which was modified method described by Garcha H. S., Thomas P., Spivak C.
(1) Preparation of Rat Skeletal Muscles Containing α1β1γδ Subtype of Nicotinic Acetylcholine Receptors
The substantially same animals described in the Biological Experiment 1 were used.
The isolation of α1β1γδ subtype of nicotinic acetylcholine receptors was performed as follow. That is, rat posterior skeletal muscles were isolated just after sacrificed by decapitation, washed with ice-cooled saline solution and then frozen at −80° C. with liquid nitrogen and stored till using. After thawing the frozen muscles, tissue was homogenized (40% w/v) with buffer solution [2.5 mM of sodium phosphate buffer (pH:7.2), 90 mM of NaCl, 2 mM of KCl, 1 mM of EDTA, 2 mM of benzamidine, 0.1 mM of benzethonium chloride, 0.1 mM of PMSF, 0.01% of sodium azide] in Waring blender [Waring blender 34BL97; WARING PRODUCTS DIVISION DYNAMICS CORPORATION OF AMERICA) for 60 seconds. The homogenate were centrifuged under 20,000×G for 60 minutes at 4° C. The supernatant was separated and the resulting pellet was added to the same buffer (1.5 ml/g wet weight), and homogenized under the same conditions. Triton X100 (2% w/v) was added and the mixture was stirred for 3 hours at 4° C. The centrifugation at 100,000×G for 60 minutes at 4° C. yielded the rat muscle extract as supernatant. This was stored at 4° C. for up to 4 weeks, and used for binding assays at receptors.
(2) Experiments of α1β1γδ Subtype of Nicotinic Acetylcholine Receptors Binding
Receptors binding experiments were performed as follow. That is, the extract of rat muscle containing 600-900 μg of protein was added to test tubes containing test compounds and incubated for 15 minutes at 37° C. Then, to this mixture was added 1 nM of [^3H]-α-bungarotoxin (α-Bgt) and further incubated for 2 hours. The samples were isolated by vacuum filtration onto Whatman GF/B filters, which were prerinsed with 0.5% polyethylenimine just prior to sample filtration, using Brandel multi manifold cell harvester. The filters were rapidly rinsed with washing solution (10 mM of KH2PO4, 150 mM of NaCl, pH 7.2, room temperature) (5×1 ml). The filters were counted in 3 ml of clearsol I (Nacalai Tesque Inc.). The determination of nonspecific binding was incubated in the presence of 1 μM α-Bgt. […] In the receptor binding experiments, said buffer solution was added for adjusting the final concentration of BSA to be 0.05%.
The analyses of the experimental results were conducted by as described in the Biological Experiment 1.

T2 sequence (P25108 21-457): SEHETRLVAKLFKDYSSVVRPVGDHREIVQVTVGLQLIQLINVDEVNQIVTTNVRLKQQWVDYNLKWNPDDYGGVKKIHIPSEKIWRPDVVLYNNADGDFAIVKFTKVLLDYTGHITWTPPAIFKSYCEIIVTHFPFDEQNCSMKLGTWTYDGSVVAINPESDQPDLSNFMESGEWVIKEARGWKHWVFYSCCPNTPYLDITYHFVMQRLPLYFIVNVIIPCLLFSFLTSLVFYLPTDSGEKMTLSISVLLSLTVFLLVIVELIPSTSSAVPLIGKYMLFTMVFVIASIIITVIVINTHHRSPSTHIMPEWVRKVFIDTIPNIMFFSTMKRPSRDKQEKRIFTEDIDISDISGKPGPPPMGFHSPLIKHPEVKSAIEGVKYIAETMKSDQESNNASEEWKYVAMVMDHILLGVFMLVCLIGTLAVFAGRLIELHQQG
T2 sequence (P25109 24-501, further chain): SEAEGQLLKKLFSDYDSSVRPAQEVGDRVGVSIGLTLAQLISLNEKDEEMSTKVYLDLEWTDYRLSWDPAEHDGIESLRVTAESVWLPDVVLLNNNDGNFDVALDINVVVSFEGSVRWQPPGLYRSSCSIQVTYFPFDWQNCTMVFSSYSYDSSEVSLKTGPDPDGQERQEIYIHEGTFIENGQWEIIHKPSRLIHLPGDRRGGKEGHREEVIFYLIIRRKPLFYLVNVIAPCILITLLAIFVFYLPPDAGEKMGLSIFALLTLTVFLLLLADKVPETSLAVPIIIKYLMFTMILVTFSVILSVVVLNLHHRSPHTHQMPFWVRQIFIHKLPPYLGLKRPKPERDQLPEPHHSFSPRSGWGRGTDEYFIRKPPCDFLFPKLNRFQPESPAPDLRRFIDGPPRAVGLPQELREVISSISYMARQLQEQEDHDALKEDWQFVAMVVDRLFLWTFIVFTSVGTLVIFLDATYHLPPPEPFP
T2 sequence (P25110 22-517, further chain): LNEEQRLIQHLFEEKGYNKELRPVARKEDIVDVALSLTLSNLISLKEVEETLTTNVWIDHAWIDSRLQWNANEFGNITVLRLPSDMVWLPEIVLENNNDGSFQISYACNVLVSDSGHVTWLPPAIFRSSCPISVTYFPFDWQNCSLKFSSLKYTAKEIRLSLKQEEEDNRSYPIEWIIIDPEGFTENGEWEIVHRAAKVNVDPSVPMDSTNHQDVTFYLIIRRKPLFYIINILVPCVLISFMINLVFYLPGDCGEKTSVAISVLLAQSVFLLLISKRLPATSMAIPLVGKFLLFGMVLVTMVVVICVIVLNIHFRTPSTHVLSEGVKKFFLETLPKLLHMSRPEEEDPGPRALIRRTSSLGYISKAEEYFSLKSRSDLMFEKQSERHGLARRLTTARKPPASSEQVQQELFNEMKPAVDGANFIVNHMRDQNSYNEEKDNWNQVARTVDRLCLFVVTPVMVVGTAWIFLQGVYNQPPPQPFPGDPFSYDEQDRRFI
T1 sequence (P09483 31-630): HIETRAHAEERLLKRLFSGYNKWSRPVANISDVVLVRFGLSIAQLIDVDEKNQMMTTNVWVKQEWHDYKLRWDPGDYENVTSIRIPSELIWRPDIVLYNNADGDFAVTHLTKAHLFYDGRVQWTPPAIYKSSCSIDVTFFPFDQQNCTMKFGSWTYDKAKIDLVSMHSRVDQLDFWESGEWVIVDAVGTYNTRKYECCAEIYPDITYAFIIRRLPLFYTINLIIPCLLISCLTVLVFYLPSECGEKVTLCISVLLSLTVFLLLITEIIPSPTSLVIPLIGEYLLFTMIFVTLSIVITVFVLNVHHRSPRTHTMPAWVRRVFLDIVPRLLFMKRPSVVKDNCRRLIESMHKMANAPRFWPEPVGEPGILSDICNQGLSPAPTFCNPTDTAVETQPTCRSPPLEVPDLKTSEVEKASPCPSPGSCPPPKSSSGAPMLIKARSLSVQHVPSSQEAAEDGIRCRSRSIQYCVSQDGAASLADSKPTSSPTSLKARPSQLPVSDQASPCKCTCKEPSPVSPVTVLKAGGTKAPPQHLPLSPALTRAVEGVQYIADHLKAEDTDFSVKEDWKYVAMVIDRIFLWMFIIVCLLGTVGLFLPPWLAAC
T1 sequence (P12390 25-500): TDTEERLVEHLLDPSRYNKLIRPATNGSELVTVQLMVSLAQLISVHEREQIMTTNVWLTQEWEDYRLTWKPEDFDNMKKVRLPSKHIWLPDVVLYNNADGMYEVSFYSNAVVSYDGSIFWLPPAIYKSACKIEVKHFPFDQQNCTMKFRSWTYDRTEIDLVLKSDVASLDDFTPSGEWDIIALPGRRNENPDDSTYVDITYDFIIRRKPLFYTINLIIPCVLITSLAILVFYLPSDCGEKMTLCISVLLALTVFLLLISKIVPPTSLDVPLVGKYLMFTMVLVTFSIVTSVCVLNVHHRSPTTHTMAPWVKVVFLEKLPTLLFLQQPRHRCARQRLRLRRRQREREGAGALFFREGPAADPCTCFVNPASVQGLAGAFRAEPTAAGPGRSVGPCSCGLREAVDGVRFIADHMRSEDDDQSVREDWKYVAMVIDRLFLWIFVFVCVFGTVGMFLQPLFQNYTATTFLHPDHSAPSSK

Structure (SMILES)	Ki [1] [nM]	control % of [3H]-α-Bgt binding at 100 μM of test compound [2] [%]	control % of [3H]-α-Bgt binding at 1,000 μM of test compound [2] [%]	control % of [3H]-cytisine binding at 1 μM of test compound [1] [%]	control % of [3H]-cytisine binding at 10 μM of test compound [1] [%]
N=C1N(Cc2ccc(Cl)nc2)CCCN1Cc1ccc(Cl)nc1 [Compound 4, 1,3-bis[(6-chloro-3-pyridyl)methyl]-2-imino-1,2,3,4,5,6-hexahydropyrimidine]	475	49	30	–	–
N=c1n(Cc2ccc(Cl)nc2)ccn1Cc1ccc(Cl)nc1 [Compound 10, 1,3-bis[(6-chloro-3-pyridyl)methyl]-2-imino-2,3-dihydroimidazole]	–	–	–	89	46
Clc1ccc(Cn2ccs/c2=N\c2ccccc2)cn1 [Compound 12, 3-(6-Chloro-3-pyridyl)methyl-2-phenylimino-2,3-dihydrothiazole]	–	86	48	109	84
C/N=C1\SCCN1Cc1ccc(Cl)nc1 [Compound 11, 3-(6-chloro-3-pyridyl)methyl-2-methylimino-thiazolidine]	–	–	–	93	18
Clc1ccc(C/N=C2\NCCCN2Cc2ccc(Cl)nc2)cn1 [Compound 3, 1-(6-chloro-3-pyridyl)methyl-[(6-chloro-3-pyridyl)methyl]imino-1,2,3,4,5,6-hexahydropyrimidine]	739	77	76	–	–
Cc1cs/c(=N\Cc2ccc(Cl)nc2)n1Cc1ccc(Cl)nc1 [Compound 9, 3-(6-Chloro-3-pyridyl)methyl-2-[(6-chloro-3-pyridyl)methyl]imino-4-methyl-2,3-dihydrothiazole]	110	78	40	–	–
Clc1cc/c(=N\Cc2ccc(Cl)nc2)n(Cc2ccc(Cl)nc2)c1 [Compound 6, 5-chloro-1-(6-chloro-3-pyridyl)methyl-2-[(6-chloro-3-pyridyl)methyl]imino-1,2-dihydropyridine]	–	–	–	94	45
CC1CCC/C(=N\Cc2ccc(Cl)nc2)N1Cc1ccc(Cl)nc1 (stereo not shown) [Compound 7, 1-(6-chloro-3-pyridyl)methyl-2-[(6-chloro-3-pyridyl)methyl]imino-6-methylpiperidine]	–	85	52	85	75
Clc1ccc(C/N=c2\ncccn2Cc2ccc(Cl)nc2)cn1 [Compound 5, 1-(6-chloro-3-pyridyl)methyl-2-[(6-chloro-3-pyridyl)methyl]imino-1,2-dihydropyrimidine]	–	–	–	92	23
Clc1ccc(CN2CCS/C2=N\Cc2ccccc2)cn1 [Compound 14, 2-Benzylimino-3-(6-chloro-3-pyridyl)methylthiazolidine]	123	64	20	–	–
